{"source": "patent US20040034225A1", "about": "“Aryl-substituted n, n-heterocyclic compounds, method for their preparationand their use in therapeutics and diagnostics” (priority 2000, published 2004)", "key": {"[1]": {"system": "AAPH-induced oxidation of linoleate", "test": "AAPH-induced peroxidation of linoleate (conjugated dienes at 234 nm)", "type": "biochemical", "conditions": "for A234 (amount of conjugated dienes formed by the peroxidative process): absorption at 234 nm after 150 min at 37° C., aminopyrazines at 10 μM, AAPH alone 0.37; for antioxidative activity (inhibition of lipid peroxidation), in words: comment on Table 2, 10 μM; for antioxidative activity (inhibition of AAPH-induced peroxidation of linoleic acid), in words: FIG. 3", "experimental": "In a preferred embodiment the synthetic derivatives of 2-amino-1,4-pyrazine of family I, characterized by two aryl substituents in positions C-3 and C-5, were endowed with unexpectedly high antioxidative properties (FIG. 1). […] AAPH 4 mM was added to a micellar solution of linoleate (0.16 mM). The rate of conjugated dienes formation was measured at 234 nm at 37° C. All aminopyrazines were tested at 5 μM.\nThe ability of the synthesized compounds to inhibit lipid peroxidation has been tested on AAPH-induced oxidation of linoleate. Briefly, a micellar solution of linoleate (0.16 mM) is incubated at 37° C. with 4 mM free radical generator AAPH (2,2′-azobis-2-methyl-propionamidine hydrochloride) in a microplate-based spectrophotometer. The production of conjugated dienes by the peroxidation of linoleate is monitored continuously at 234 nm. Antioxidants can both delay the onset of the oxidation process and reduce the rate of the oxidation.\nThe amount of conjugated dienes formed by the peroxidative process evaluated by the absorption at 234 nm after 150 min at 37° C. All aminopyrazines were tested at 10 μM."}, "[2]": {"system": "Human keratinocytes cells (HaCaT)", "test": "Protective effect against UVB in HaCaT cells (LDH release)", "type": "cell-based", "conditions": "for Percentage Mortality (LDH assay), Unirradiated cells: 24 hours, no UVB; for mortality at 50 µM: Homo sapiens, light or radiation study, 30 min pre-incubation, UVB 200 mJ/cm^2, 24 hours, control 14.1, read-out: Percentage Mortality (LDH assay), UVB-irradiated cells", "experimental": "Human keratinocytes cells (HaCaT) were cultured in 96-well microplates. Tested compounds were solubilized in phosphate buffered saline (PBS) and applied to cells 30 minutes prior to the irradiation with UVB in a BIOSUN irradiation system (Vilbert-Lourmat). PBS was then replaced by the culture medium containing the tested compounds, and incubated for a further 24 hours before measuring the percentage of lactate dehydrogenase (LDH) released into the cell culture supernatant.\nKeratinocytes were pre-incubated with aminopyrazines (50 μM) for 30 min and then irradiated with UVB at 200 mJ/cm^2 in the absence of the antioxidant. The cells were then incubated for a further 24 hours in the culture medium containing the tested compounds before measuring the percentage of lactate dehydrogenase (LDH) released into the cell culture supernatant.\nKeratinocytes were pre-incubated with increasing concentrations of CD43 for 30 min and then irradiated with UVB at 200 mJ/cm^2. The cells were incubated for a further 24 hours before measuring the percentage of lactate dehydrogenase (LDH) released into the cell culture supernatant."}, "[3]": {"conditions": "FIG. 2, increasing concentrations of CD43"}}, "note": "Where a name gives a salt, the structure may show the parent alone.", "data": [{"smiles": "Cc1nc2c(-c3ccc(O)cc3)[nH]c(-c3ccccc3)cn-2c1=O", "note": "(as salt: hydrochloride) (hydrate or solvate) [CD52, 2-Methyl-6-phenyl-8-(p-hydroxyphenyl)-3,7-dihydroimidazolo[1,2-a]pyrazin-3-one]", "values": [{"measurement": "melting point", "result": "99.5 °C (dec.)"}]}, {"smiles": "CCOC(=O)C(C)Nc1nc(NC(C)C(=O)OCC)c(-c2ccc(O)cc2)nc1-c1ccc(O)cc1", "note": "(centres unmarked) (as salt: hydrochloride) [JFC38, 2,6-Bis(1′-ethoxycarbonyl-ethylamino)-3,5-bis(p-hydroxyphenyl)-1,4-pyrazine]", "values": [{"measurement": "melting point", "result": "175 °C (dec.)"}]}, {"smiles": "COc1ccc(-c2cnc(N)c(-c3ccc(OC)cc3)n2)cc1", "note": "[CD29, 2-Amino-3,5-bis(p-methoxyphenyl)-1,4-pyrazine, reference compound]", "values": [{"measurement": "A234 (amount of conjugated dienes formed by the peroxidative process)", "setting": "[1]", "result": 0.37}, {"measurement": "antioxidative activity (inhibition of lipid peroxidation), in words", "setting": "[1]", "result": "reduced activities"}]}, {"smiles": "Nc1ncc(-c2ccc(O)cc2)nc1-c1ccc(O)cc1", "note": "[CD31, 2-amino-3,5-bis(p-hydroxyphenyl)-1,4-pyrazine]", "values": [{"measurement": "A234 (amount of conjugated dienes formed by the peroxidative process)", "setting": "[1]", "result": 0.08}, {"measurement": "antioxidative activity (inhibition of lipid peroxidation), in words", "setting": "[1]", "result": "very active"}, {"measurement": "Percentage Mortality (LDH assay), Unirradiated cells", "setting": "[2]; 50 μM", "result": 0, "unit": "%"}, {"measurement": "mortality at 50 µM", "setting": "[2]; 50 μM", "result": 0, "unit": "%"}]}, {"smiles": "Cc1nc2c(-c3ccc(O)cc3)[nH]c(-c3ccc(O)cc3)cn-2c1=O", "note": "[CD43, 2-Methyl-6,8-bis(p-hydroxyphenyl)-3,7-dihydroimidazolo[1,2-a]pyrazin-3-one]", "values": [{"measurement": "onset of peroxidation, in words", "setting": "[1]; [3]", "result": "delay of the onset of peroxidation"}, {"measurement": "rate of oxidation after onset, in words", "setting": "[1]; [3]", "result": "lower rate of oxidation after onset"}, {"measurement": "protection against UVB-induced mortality, in words", "setting": "[2]; FIG. 4, increasing concentrations of CD43, UVB 200 mJ/cm^2", "result": "very efficiently protect cells against UVB-induced mortality"}, {"measurement": "toxicity for cells, in words", "setting": "[2]; controls", "result": "no toxicity for cells"}]}, {"smiles": "Nc1ncc(-c2ccccc2)nc1-c1ccc(O)cc1", "note": "[CD46, 2-amino-3-(p-hydroxyphenyl)-5-phenyl-1,4-pyrazine]", "values": [{"measurement": "A234 (amount of conjugated dienes formed by the peroxidative process)", "setting": "[1]", "result": 0.19}, {"measurement": "Percentage Mortality (LDH assay), Unirradiated cells", "setting": "[2]; 50 μM", "result": 0, "unit": "%"}, {"measurement": "protection against UVB-induced cytotoxicity, in words", "setting": "[2]; 50 μM, UVB 200 mJ/cm^2", "result": "very efficiently reduced the cytotoxicity of UVB"}, {"measurement": "mortality at 50 µM", "setting": "[2]; 50 μM", "result": 0, "unit": "%"}]}, {"smiles": "Nc1ncc(-c2ccc(O)cc2)nc1-c1ccccc1", "note": "[CD51, 2-amino-3-phenyl-5-(p-hydroxyphenyl)-1,4-pyrazine]", "values": [{"measurement": "rate of the oxidation, in words", "setting": "[1]; FIG. 6, 5 μM", "result": "only reduces the rate of the oxidation"}, {"measurement": "A234 (amount of conjugated dienes formed by the peroxidative process)", "setting": "[1]", "result": 0.12}, {"measurement": "antioxidative activity (inhibition of lipid peroxidation), in words", "setting": "[1]", "result": "more activity"}, {"measurement": "Percentage Mortality (LDH assay), Unirradiated cells", "setting": "[2]; 50 μM", "result": 0, "unit": "%"}, {"measurement": "mortality at 50 µM", "setting": "[2]; 50 μM", "result": 7.3, "unit": "%"}]}, {"smiles": "Cc1nc2c(-c3ccccc3)[nH]c(-c3ccc(O)cc3)cn-2c1=O", "note": "[CD53, 2-Methyl-6-(p-hydroxyphenyl)-8-phenyl-3,7-dihydroimidazolo[1,2-a]pyrazin-3-one]", "values": [{"measurement": "onset of the oxidation process, in words", "setting": "[1]; FIG. 6, 5 μM", "result": "firstly delays the onset of the oxidation process"}]}, {"smiles": "Nc1nc(N)c(-c2ccc(O)cc2)nc1-c1ccc(O)cc1", "note": "[JFC28, 2,6-diamino-3,5-bis(p-hydroxyphenyl)-1,4-pyrazine]", "values": [{"measurement": "antioxidative activity (inhibition of AAPH-induced peroxidation of linoleic acid), in words", "setting": "[1]; 5 μM", "result": "does not improve the activity"}]}, {"smiles": "CCOC(=O)C(C)Nc1nc(NC(C)C(=O)OCC)c(-c2ccc(O)cc2)nc1-c1ccc(O)cc1", "note": "(centres unmarked) [JFC38, 2,6-Bis(1′-ethoxycarbonyl-ethylamino)-3,5-bis(p-hydroxyphenyl)-1,4-pyrazine]", "values": [{"measurement": "antioxidative activity (inhibition of AAPH-induced peroxidation of linoleic acid), in words", "setting": "[1]; 5 μM", "result": "very active"}]}, {"smiles": "Nc1nc(N)c(-c2ccccc2)nc1-c1ccccc1", "note": "[JFC 33]", "values": [{"measurement": "antioxidative activity (inhibition of AAPH-induced peroxidation of linoleic acid), in words", "setting": "[1]; 5 μM", "result": "active"}]}, {"smiles": "CCOC(=O)C(C)Nc1nc(NC(C)C(=O)OCC)c(-c2ccccc2)nc1-c1ccccc1", "note": "(centres unmarked) [JFC 39]", "values": [{"measurement": "antioxidative activity (inhibition of AAPH-induced peroxidation of linoleic acid), in words", "setting": "[1]; 5 μM", "result": "active"}]}]}
